# Measurements from PMC8903829 (eLife, 2022).
# Read-outs that look alike come from different tables or passages of the source.
# Key:
# [1] = Bioanalytical assessment of plasma and brain concentrations after mouse DC-MES assay; assay type: in vivo; conditions: mouse, oral, WT mouse DC-MES acute
# Protocol: Approximately 0.5 mL of blood was collected from each mouse at the end of the assay via cardiac puncture under deep anesthesia. The blood samples were collected in a syringe and transferred to tubes containing EDTA. Blood was stored at 4 °C until centrifuged within 30 min of collection. Plasma was harvested and placed on dry ice and stored in a freezer set to maintain a temperature of –70°C to –80°C until analysis. Brains were harvested immediately after blood collection and placed on dry ice prior to storage in a freezer set to maintain a temperature of –70°C to –80°C until analysis.
# Extraction of plasma samples was carried out by protein precipitation using acetonitrile. Plasma samples (50 µL) were mixed with 50 µL of internal standard (IS) solution in water followed by addition of 10 µL of concentrated ortho-phosphoric acid and 200 µL of acetonitrile. Samples were vortexed for 30 seconds, centrifuged at 13,000 rpm for 20 min, decanted in to a 96-well plate, and further centrifuged at 4000 rpm for 20 min. The samples were analyzed by UHPLC-ESI-MS/MS as described below.
# Prior to extraction, pre-weighed whole brains were homogenized in 1:1 acetonitrile/water (v/v) (4 mL per mouse brain) using an IKA T18 ULTRA-TURRAX Homogenizer at the setting of 4 for approximately 2 min. The homogenate was centrifuged at 13,000 rpm for 20 min and 50 µL of the supernatant were treated exactly as described above for plasma samples. […]
# Samples were analyzed by UHPLC-ESI MS/MS using a TQ-5500 Sciex triple quadrupole mass spectrometer equipped with a Shimadzu Nexera UHPLC pump and auto-sampler system using an ACE C18 PFP, 2.50 × 50 mm, 1.7 µm particle size column and gradient elution consisting of solvent A (0.1% formic acid in water) and solvent B (0.1% formic acid in acetonitrile) starting at 20% B from 0 min to 0.4 min and then increased to 100% B from 0.4 min to 0.6 min. At 2.0 min, the mobile phase composition was switched back to […] for 1 min. The flow rate used throughout the experiment was […]. […] The UHPLC-ESI MS/MS system was controlled by Analyst 1.6.
# Sample concentrations were determined using a linear calibration function, weighted 1 /X, generated by the regression of analyte to IS peak area ratios in the standard samples to their respective concentrations. Acceptance criteria for the analytical run required that the back calculated values of the standards and the QC samples fell within ±20% of their nominal values, except for the lowest standard or lower limit of quantitation (LLOQ), for which the acceptance criterion was ±25%. At least 6 out of 12 standard points had to show back-calculated values within ±20% of their nominal concentrations for the calibration to be accepted. At least three QC samples, one at each level, had to show back-calculated values within ±20% of their nominal concentrations for the whole sample batch to be valid.
# Sprague Dawley rats = assay: Observation of potential adverse behavior (behavioral signs) in the rat DC-MES studies; assay type: in vivo; conditions: rat
# Protocol: Animals were observed by the scientist(s) responsible for dosing for the first 30 min after dosing for and again at the time of assay (2 hr post dose) for signs of abnormal behavior.
# [2] = test system: wild-type Sprague Dawley rats; assay: DC-Maximal electroshock seizure assay (DC-MES); assay type: in vivo, rat
# Protocol: (§1) Phenytoin was formulated in physiologic saline and was administered intraperitoneally (i.p.) using a 25-gauge needle at a dose volume of 10 mL/kg. All compounds were administered 2 hr prior to electrical seizure induction for all seizure models employed in this study.
# (§2) The maximal electroshock seizure (MES) assay has been extensively used in the search for anticonvulsant substances ([Löscher et al., 1991]; [Piredda et al., 1985]; [White et al., 1995]). The MES assay is sensitive to nonselective NaV inhibitors. It is considered a model for generalized tonic-clonic (GTC) seizures and provides an assessment of seizure spread. Briefly, an electroshock of direct current (DC) was delivered by corneal electrodes (Electro Convulsive Therapy Unit 57,800 from Ugo Basile). The parameters of stimulation were different between mice and rats. In CF1 mice aged 9–12 weeks, a direct current of 50 mA (60 Hz) was delivered for 0.2 s (pulse width of 0.5ms), whereas in Sprague Dawley (SD) rats aged 5–6 weeks, a direct current of 150 mA (60 Hz) was delivered for 0.3 s (pulse width of 0.5ms). Immediately prior to the electroshock, the animals’ eyes were anesthetized with a drop of Alcaine (0.5% proparacaine hydrochloride).
# (§3) An animal was considered protected in the assay in the absence of a GTC with hindlimb extension and is then scored ‘0’. An animal displaying GTC with hindlimb extension was considered not protected and is then scored ‘1’. The experimenter scoring the seizure behavior was blinded to the treatment.
# [3] = Bioanalytical assessment of plasma and brain concentrations after rat DC-MES assay; assay type: in vivo; conditions: rat, oral, Rat DC-MES
# wild-type mice (CF-1) = assay: DC-Maximal electroshock seizure assay (DC-MES); assay type: in vivo, mouse
# Protocol: as §1, §2, §3
smiles,measurement,setting,value
"NC(=O)N1c2ccccc2C=Cc2ccccc21 [carbamazepine, Carbamazepine, reference compound]",concentration at 2 h,"[1]; brain, 10 mg/kg, Study17131, 10 mg/kg, read-out: Mean [Brain]",18.3 µM
same,concentration at 2 h,"[1]; brain, 10 mg/kg, Study17134, 10 mg/kg, read-out: Mean [Brain]",17.4 µM
same,concentration at 2 h,"[1]; brain, 30 mg/kg, Study17131, 30 mg/kg, read-out: Mean [Brain]",43.1 µM
same,concentration at 2 h,"[1]; brain, 30 mg/kg, Study17134, 30 mg/kg, read-out: Mean [Brain]",46 µM
same,concentration at 2 h,"[1]; brain, 100 mg/kg, Study17131, 100 mg/kg, read-out: Mean [Brain]",115 µM
same,concentration at 2 h,"[1]; plasma, 10 mg/kg, Study17131, 10 mg/kg, read-out: Mean [Palsma]",13.6 µM
same,concentration at 2 h,"[1]; plasma, 10 mg/kg, Study17134, 10 mg/kg, read-out: Mean [Palsma]",16.6 µM
same,concentration at 2 h,"[1]; plasma, 30 mg/kg, Study17131, 30 mg/kg, read-out: Mean [Palsma]",34.5 µM
same,concentration at 2 h,"[1]; plasma, 30 mg/kg, Study17134, 30 mg/kg, read-out: Mean [Palsma]",52.5 µM
same,concentration at 2 h,"[1]; plasma, 100 mg/kg, Study17131, 100 mg/kg, read-out: Mean [Palsma]",91.3 µM
same,minimal plasma concentration provoking behavioral signs (BSC),Sprague Dawley rats,110 µM
same,Rat DC-MES Fraction of animals seizing,"[2]; Study18058, 10 mg/kg",0.857
same,Rat DC-MES Fraction of animals seizing,"[2]; Study18058, 20 mg/kg",0.714
same,Rat DC-MES Fraction of animals seizing,"[2]; Study18068, 30 mg/kg",0.571
same,Rat DC-MES Fraction of animals seizing,"[2]; Study18068, 100 mg/kg",0.428
same,Rat DC-MES Fraction of animals seizing,"[2]; Study18085, 300 mg/kg",0.285
same,EC50,"[2]; WT rat DC-MES (oral; phenytoin i.p.), read-out: plasma EC50",30 µM
same,EC50,"[2]; WT rat DC-MES, 2 hr post dose (oral; phenytoin i.p.), read-out: brain EC50",36 µM
same,concentration at 2 h,"[3]; brain, 3 mg/kg, Study18058, 3 mg/kg, read-out: Mean [Brain]",0.979 µM
same,concentration at 2 h,"[3]; brain, 10 mg/kg, Study18058, 10 mg/kg, read-out: Mean [Brain]",4.24 µM
same,concentration at 2 h,"[3]; brain, 20 mg/kg, Study18058, 20 mg/kg, read-out: Mean [Brain]",11 µM
same,concentration at 2 h,"[3]; brain, 30 mg/kg, Study18068, 30 mg/kg, read-out: Mean [Brain]",30.4 µM
same,concentration at 2 h,"[3]; brain, 100 mg/kg, Study18068, 100 mg/kg, read-out: Mean [Brain]",55.5 µM
same,concentration at 2 h,"[3]; brain, 300 mg/kg, Study18085, 300 mg/kg, read-out: Mean [Brain]",79.9 µM
same,concentration at 2 h,"[3]; plasma, 3 mg/kg, Study18058, 3 mg/kg, read-out: Mean [Palsma]",0.966 µM
same,concentration at 2 h,"[3]; plasma, 10 mg/kg, Study18058, 10 mg/kg, read-out: Mean [Palsma]",4.27 µM
same,concentration at 2 h,"[3]; plasma, 20 mg/kg, Study18058, 20 mg/kg, read-out: Mean [Palsma]",11.3 µM
same,concentration at 2 h,"[3]; plasma, 30 mg/kg, Study18068, 30 mg/kg, read-out: Mean [Palsma]",24 µM
same,concentration at 2 h,"[3]; plasma, 100 mg/kg, Study18068, 100 mg/kg, read-out: Mean [Palsma]",42.7 µM
same,concentration at 2 h,"[3]; plasma, 300 mg/kg, Study18085, 300 mg/kg, read-out: Mean [Palsma]",65.9 µM
same,WT mouse DC-MES acute Fraction of animals seizing,"wild-type mice (CF-1); Study17131, 10 mg/kg",0.7143
same,WT mouse DC-MES acute Fraction of animals seizing,"wild-type mice (CF-1); Study17131, 30 mg/kg",0.4286
same,WT mouse DC-MES acute Fraction of animals seizing,"wild-type mice (CF-1); Study17131, 100 mg/kg",0.1429
same,WT mouse DC-MES acute Fraction of animals seizing,"wild-type mice (CF-1); Study17134, 10 mg/kg",0.8571
same,WT mouse DC-MES acute Fraction of animals seizing,"wild-type mice (CF-1); Study17134, 30 mg/kg",0.4286
same,EC50,"wild-type mice (CF-1); WT mouse DC-MES, 2 hr post dose (oral; phenytoin i.p.), read-out: brain EC50",44 µM
